Legend:
[1] = Stability in mouse plasma; assay type: in vitro ADME; conditions: 4 h incubation, 20 μM
Description: Mouse plasma was diluted with 100 mM PBS buffer at 7.4 pH and at a 1:1 ratio, and warmed to 37° C. Test compounds were added to the plasma solution at 20 μM and incubated for the indicated time point. Reactions was quenched by aliquoting 15 μL of solution into 60 μL ice-cold acetonitrile containing an internal standard. Compounds were quantified by LC-MS, as detailed above.

[2] = Tolerability in tumor-bearing mice; assay type: in vivo; conditions: 10 mg/kg i.p., 24 hrs
Description: 6-week old male mice were purchased from Charles River Laboratories, and housed in Columbia University's animal control barrier facilities, and mice were allowed one week to acclimate to their new environment. To establish tumor xenografts, 10×10^6 SK-N-Be2 cells were suspended in a 200 μL volume of 50% matrigel slurry. […] Mice were kept on standard chow diet (Purina), and their cage dressing changed twice weekly. Animals were investigated regularly for any sign of discomfort. […] To create the stock solution of isopomiferin, 5 mg of isopomiferin (MicroSource) was dissolved into 50 μL dimethyl sulfoxide (DMSO). To this 450 μL of cyclodextrin solution was added dropwise. Cyclodextrin is dissolved as a 50% w/v solution in 40% EtOH. It is important to add the cyclodextrin slowly and with continual mixing to solubilize the compound. This solution was added to one volume of PBS and filter-sterilized. This solution was then diluted to achieve appropriate concentrations for a 200 μL volume administration at 10 mg/kg to each mouse. The solution was administered to animals via intraperitoneal injection (i.p.). […]
The ability of the compounds to inhibit growth of MYCNA tumor xenografts was evaluated by treating tumor bearing mice with daily i.p. injections of 20 mg/kg isopomiferin or pomiferin. […] MYCN abundance was evaluated mid-experiment, following 14 days of treatment.

pAKT (Ser473) = pAKT (Ser473) western blot in SK-N-Be2 cells; assay type: cell-based, human; conditions: growth factor induced
From the text: (§1) Membranes were blocked using Odyssey Blocking Buffer (LI-COR) for 1 hr at room temperature. […] Primary antibodies used in these studies include: MycN (CST; 1:500 dilution), Actin (SCBT; 1:2000 dil.), cMYC (CST; 1:500 dil.), pAKT (S473; CST; 1:500 dil.), AKT (CST; 1:2000), pP70 (T389; CST; 1:1000) P70 (CST; 1:1000).
We first tested whether isopomiferin disrupted […] signaling in NBL by treating SK-N-Be2 cells to isopomiferin and blotting for pAKT abundance. Treatment with […] (EGF) induces pAKT1 through mTOR signaling. We tested whether isopomiferin had the ability to disrupt mTOR signaling by pre-treating cells with isopomiferin for 2 hrs, following which cells were treated with 10 ng/ml EGF for 30 minutes to induce pAKT1. […] Total AKT abundance was used as a loading control to confirm that isopomiferin was simply not suppressing expression of AKT abundance.

cMyc = test: Western blot of cMyc in A549 cells; assay type: cell-based; conditions: A549 cells, 5, 10, or 15 μM, 24 hrs
From the text: as §1
There are some shared upstream regulatory pathways that govern both MycN and cMyc expression, including mTOR signaling cascade (Guertin and Sabatini 2007; Hay and Sonenberg 2004). We hypothesized that isopomiferin could disrupt the expression of cMyc as well. We identified a cMyc-expressing lung cancer line, A549, and treated cells with 5, 10, or 15 μM isopomiferin for 24 hrs (FIG. 3D).

Row | Structure (SMILES) | compound remaining in mouse plasma [1] | toxicity observed in animals [2] | pAKT accumulation / AKT (Ser473) phosphoactivation (pAKT (Ser473)) | pAKT accumulation / AKT (Ser473) phosphoactivation (pAKT (Ser473); listed as Isopomiferin) | cMyc protein abundance (cMyc)
1 | CC(C)=CCc1c2c(c3occ(-c4ccc(O)c(O)c4)c(=O)c3c1O)C=CC(C)(C)O2 [pomiferin] | approximately 75% |  |  |  | 
2 | CC1(C)C=Cc2c(c3c(c4c(=O)c(-c5ccc(O)c(O)c5)coc24)OC(C)(C)CC3)O1 [isopomiferin] |  | No toxicity issues were observed | blocked pAKT accumulation in presence of EGF treatment | inhibited phosphorylation of P70^S6K, as well as the IGF1-induced phosphoactivation of AKT (Ser473) | suppressed cMyc protein abundance in A549 in a dose dependent manner

From patent publication US20220119399A1, “COMPOUNDS AND COMPOSITIONS THAT CAUSE MYCN AND/OR CMYC DEGRADATION AND METHODS OF USE THEREOF” (THE TRUSTEES OF COLUMBIA UNIVERSITY IN THE CITY OF NEW YORK, priority 2018, published 2022)
